Reference: PMC1307573 (Journal of Insect Science, 2005)

Columns and labels:
Gyc-88EL [1] = target: T1, Gyc-88EL (Drosophila melanogaster, UniProt Q8INF0); assay type: biochemical
T1 sequence (Q8INF0 1-1097): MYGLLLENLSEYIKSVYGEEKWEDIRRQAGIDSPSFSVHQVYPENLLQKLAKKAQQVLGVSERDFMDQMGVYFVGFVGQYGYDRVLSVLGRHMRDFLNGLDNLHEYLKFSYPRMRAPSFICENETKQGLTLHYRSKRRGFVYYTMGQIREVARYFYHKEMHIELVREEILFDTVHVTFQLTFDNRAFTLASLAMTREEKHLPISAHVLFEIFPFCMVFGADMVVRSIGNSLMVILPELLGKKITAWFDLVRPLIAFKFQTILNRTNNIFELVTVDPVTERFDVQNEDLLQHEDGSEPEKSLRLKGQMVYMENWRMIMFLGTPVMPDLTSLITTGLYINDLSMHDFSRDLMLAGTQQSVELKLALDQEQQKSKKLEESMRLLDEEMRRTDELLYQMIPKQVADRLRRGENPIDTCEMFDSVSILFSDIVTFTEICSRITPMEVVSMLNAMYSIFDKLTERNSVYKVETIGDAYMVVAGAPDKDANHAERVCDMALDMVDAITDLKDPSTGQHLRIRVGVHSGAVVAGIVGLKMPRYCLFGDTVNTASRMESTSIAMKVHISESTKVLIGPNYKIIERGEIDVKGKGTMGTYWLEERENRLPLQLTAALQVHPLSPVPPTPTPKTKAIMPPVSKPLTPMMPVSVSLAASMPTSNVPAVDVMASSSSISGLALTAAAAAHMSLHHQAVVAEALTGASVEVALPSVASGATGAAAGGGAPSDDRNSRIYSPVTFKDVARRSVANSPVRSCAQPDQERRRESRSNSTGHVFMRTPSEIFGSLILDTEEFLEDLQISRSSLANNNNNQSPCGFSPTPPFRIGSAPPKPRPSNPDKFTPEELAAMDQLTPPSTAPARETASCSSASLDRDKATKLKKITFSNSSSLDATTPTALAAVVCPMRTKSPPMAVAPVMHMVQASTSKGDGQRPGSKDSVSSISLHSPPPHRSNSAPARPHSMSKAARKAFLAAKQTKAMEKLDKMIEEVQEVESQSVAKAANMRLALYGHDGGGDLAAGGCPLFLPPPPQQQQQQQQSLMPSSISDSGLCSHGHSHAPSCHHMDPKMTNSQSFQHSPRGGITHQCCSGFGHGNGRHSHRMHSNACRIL

Gyc-88EL/89Da = Gyc-88EL/89Da (Drosophila melanogaster, UniProt Q8INF0+Q9VEU6); assay type: biochemical
Chain of Gyc-88EL/89Da (Q9VEU6 whole entry, one chain of several): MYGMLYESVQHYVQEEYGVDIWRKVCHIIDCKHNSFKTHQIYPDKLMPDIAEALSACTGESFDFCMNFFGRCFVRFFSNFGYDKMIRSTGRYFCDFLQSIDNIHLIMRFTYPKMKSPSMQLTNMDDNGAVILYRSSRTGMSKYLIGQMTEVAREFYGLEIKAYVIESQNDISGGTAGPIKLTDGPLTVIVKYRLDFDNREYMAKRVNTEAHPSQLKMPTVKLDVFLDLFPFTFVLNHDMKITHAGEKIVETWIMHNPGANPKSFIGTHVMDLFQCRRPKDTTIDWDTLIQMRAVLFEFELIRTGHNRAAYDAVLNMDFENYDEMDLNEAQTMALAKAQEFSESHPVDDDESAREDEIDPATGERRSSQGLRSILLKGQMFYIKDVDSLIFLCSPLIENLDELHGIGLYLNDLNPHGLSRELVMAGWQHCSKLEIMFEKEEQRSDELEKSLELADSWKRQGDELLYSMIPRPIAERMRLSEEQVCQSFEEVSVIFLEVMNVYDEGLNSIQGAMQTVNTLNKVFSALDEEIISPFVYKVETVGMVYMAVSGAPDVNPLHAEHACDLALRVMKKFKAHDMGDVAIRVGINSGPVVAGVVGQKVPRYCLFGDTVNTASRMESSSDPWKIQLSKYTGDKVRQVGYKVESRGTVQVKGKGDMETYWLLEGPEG

Gyc-88EL/89Db [2] = target: T2, Gyc-88EL/89Db (Drosophila melanogaster, UniProt Q8INF0+Q9VEU5); assay type: biochemical; conditions: for activation by NO-independent activator: COS-7 cell extracts, 4mM Mg2+
T2 sequence (Q9VEU5 whole entry, one chain of several): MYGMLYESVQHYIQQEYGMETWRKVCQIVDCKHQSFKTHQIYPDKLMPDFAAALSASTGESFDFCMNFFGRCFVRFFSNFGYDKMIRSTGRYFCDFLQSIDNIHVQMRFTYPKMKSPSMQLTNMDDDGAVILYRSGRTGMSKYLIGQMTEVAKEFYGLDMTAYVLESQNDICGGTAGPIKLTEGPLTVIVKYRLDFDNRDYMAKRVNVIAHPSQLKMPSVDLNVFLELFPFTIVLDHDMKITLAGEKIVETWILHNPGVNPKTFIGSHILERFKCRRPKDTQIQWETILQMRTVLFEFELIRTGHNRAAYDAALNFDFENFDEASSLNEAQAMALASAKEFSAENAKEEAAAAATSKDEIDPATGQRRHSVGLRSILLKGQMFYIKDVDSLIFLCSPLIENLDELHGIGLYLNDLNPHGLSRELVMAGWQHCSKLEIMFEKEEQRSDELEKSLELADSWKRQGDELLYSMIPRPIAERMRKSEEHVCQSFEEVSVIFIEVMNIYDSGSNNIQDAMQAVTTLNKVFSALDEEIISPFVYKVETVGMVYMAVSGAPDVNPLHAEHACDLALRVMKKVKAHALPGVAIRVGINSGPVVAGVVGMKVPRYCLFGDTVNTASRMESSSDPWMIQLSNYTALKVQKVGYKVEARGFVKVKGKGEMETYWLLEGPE

Gyc-88EL [3] = target: T1, Gyc-88EL; conditions: ref Langlais et al. 2004, cited from earlier work
Gyc-88EL/89Db [4] = target: T2, Gyc-88EL/89Db; conditions: ref Langlais et al. 2004; cited from earlier work
Gycα-99B/β-100B = Gycα-99B/β-100B (Drosophila melanogaster, UniProt Q07093+Q9VA09); assay type: biochemical
[5] = NO donor; cited from earlier work

For `CCN(CC)/[N+]([O-])=N/O` [DEA-NONOate, diethylamine- (DEA)-NONOate], the “maximal stimulation of guanylyl cyclase activity” value (Gyc-88EL [1]; COS-7 cell extracts, 4mM Mg2+) was “No stimulation”, the “maximal stimulation of guanylyl cyclase activity” value (Gyc-88EL/89Da; COS-7 cell extracts, 4mM Mg2+) was “No stimulation” and the EC50 (Gyc-88EL/89Db [2]) was ~100 nM. For the same compound, the “DEA-NONOate-stimulated guanylyl cyclase activity” value (Gyc-88EL/89Db [2]; 1 μM DEA-NONOate, absence of ODQ, basal 208 ± 19) was 676 ± 70 fmoles cGMP/min/mg protein, the “concentration of maximal activation” value (Gyc-88EL/89Db [2]; bell-shaped response) was “about 1 μM” and the “activation at 100 μM” value (Gyc-88EL [3]; 100 μM) was “did not significantly activate”. The “activation at 100 μM” value (Gyc-88EL/89Db [4]) was “did not significantly activate”.

For `Nc1nc2c(ncn2[C@@H]2O[C@H](COP(=O)(O)OP(=O)(O)OP(=O)(O)O)[C@@H](O)[C@H]2O)c(=O)[nH]1` [GTP], the “Vmax Mn/Mg” value (Gyc-88EL [1]; ratio of Vmax in Mn2+ to Mg2+) was 1.71, the “Vmax Mn/Mg” value (Gyc-88EL/89Da; ratio of Vmax in Mn2+ to Mg2+) was 46.9 and the “Vmax Mn/Mg” value (Gyc-88EL/89Db [2]; ratio of Vmax in Mn2+ to Mg2+) was 1.81. The “Vmax Mn/Mg” value (Gycα-99B/β-100B; ratio of Vmax in Mn2+ to Mg2+) was 96.7.

For `Nc1nc(-c2nn(Cc3ccccc3F)c3ncccc23)ncc1C1CC1` [BAY 41-2272], the “activation by NO-independent activator” value (Gyc-88EL [1]; COS-7 cell extracts, 4mM Mg2+) was “None of the atypical guanylyl cyclase subunit combinations showed any activation”, the “activation by NO-independent activator” value (Gyc-88EL/89Da; COS-7 cell extracts, 4mM Mg2+) was “None of the atypical guanylyl cyclase subunit combinations showed any activation” and the “activation by NO-independent activator” value (Gyc-88EL/89Db [2]) was “None of the atypical guanylyl cyclase subunit combinations showed any activation”. For the same compound, the EC50 (Gycα-99B/β-100B) was 7.3 µM and the “activation at 30 μM” value (Gycα-99B/β-100B; 30 μM, 4mM Mg2+) was “over 100 fold”.

In the case of `CCNCCN(CC)N(O)N=O` [NOC-12], the EC50 (Gyc-88EL/89Da) is given as ~2 µM, the EC50 (Gyc-88EL/89Db [2]) is given as ~2000 nM and the half-life [5] is given as 327 min.

With `CC(=O)NC(C(=O)O)C(C)(C)SN=O` (centres unmarked) [SNAP, S-nitroso-N-acetylpenicillamine] the EC50 for activation (Gyc-88EL [1]; COS-7 cell extracts, 4mM Mg2+) was “not saturated with 100 μM SNAP”, the EC50 (Gyc-88EL/89Da) was ~10 µM and the EC50 (Gyc-88EL/89Db [2]) was ~10000 nM.

For `OCc1ccc(-c2nn(Cc3ccccc3)c3ccccc23)o1` [YC-1], the “activation by NO-independent activator” value (Gyc-88EL [1]; COS-7 cell extracts, 4mM Mg2+) was “insensitivity”, the “activation by NO-independent activator” value (Gyc-88EL/89Da; COS-7 cell extracts, 4mM Mg2+) was “insensitivity” and the “activation by NO-independent activator” value (Gyc-88EL/89Db [2]) was “insensitivity”. For the same compound, the “activation by NO-independent activator” value (Gycα-99B/β-100B) was “only activate the conventional enzyme”.

In the case of `O=c1onc2cnc3ccccc3n12` [ODQ, 1H-[1,2,4]oxadiazolo [4,3,-a]quinoxaline-1-one], the “inhibition of NOC-12-stimulated activity” value (Gyc-88EL/89Da; 100 μM ODQ, data not shown) is reported as “inhibited”, the “DEA-NONOate-stimulated guanylyl cyclase activity in the presence of ODQ” value (Gyc-88EL/89Db [2]; 1 μM DEA-NONOate + 100 μM ODQ, 676 ± 70 in the absence) is reported as 141 ± 21 fmoles cGMP/min/mg protein and the “inhibition of NOC-12-stimulated activity” value (Gyc-88EL/89Db [2]; 100 μM ODQ, data not shown) is reported as “inhibited”. The “basal guanylyl cyclase activity in the presence of ODQ” value (Gyc-88EL/89Db [2]; 100 μM ODQ, 208 ± 19 in the absence) was 237 ± 13 fmoles cGMP/min/mg protein, the “blocking of the NO-stimulation” value (Gycα-99B/β-100B; all forms of the soluble guanylyl cyclases) was “effective at blocking the NO-stimulation” and the “inhibition of the activation by sodium nitroprusside” value (Gyc-88EL [3]) was “ineffective”.
